Series [1] can be described thus: pharmacokinetic evaluation in rats after oral and intravenous administration. The class given is in vivo. The note with it: Sprague-Dawley, rat, plasma, male SD rats, oral 10.0 mg/kg, intravenous 1.0 mg/kg, route and unit inferred. The procedure: Using rats as test animals, an LC/MS/MS method was used to determine the drug concentrations in plasma at different times after oral and intravenous administration of Compound 1a and Compound 14 in the rats. The pharmacokinetic behavior of the compounds of the present invention in rats was studied, and pharmacokinetic characteristics thereof were evaluated.
For each compound, 6 healthy adult SD (Sprague-Dawley) rats, male, were divided into oral and intravenous administration groups, 3 rats in each group, purchased from Shanghai SIPPR/BK Laboratory Animal Co., Ltd., animal production license number: SCXK (Shanghai) 2008-0016.
A specific amount of the drug was weighed and dissolved in 5% dimethylacetamide (DMA) + 5% polyethylene glycol-15 hydroxystearate (solutol) + 90% saline solution to prepare a 0.2 mg/mL solution.
The SD rats were fasted overnight and were administered orally and intravenously. The oral dose was 10.0 mg/kg, and the intravenous dose was 1.0 mg/kg.
Compound 1a and Compound 14 were administered orally and intravenously to the rats. At 0.083, 0.25, 0.5, 1, 2, 4, 8, and 24 hours after administration, 0.2 mL of blood was collected from the submandibular vein or other suitable blood vessels, placed in K2-EDTA tubes, and then stored on ice. Within one hour, the plasma was separated by centrifugation at 6,800 g for 6 minutes at 2-8° C., and stored at -80° C. for LC/MS/MS analysis. The rats were fed 4 hours after administration.

The target of a further series is T1, human SSTR2 (Homo sapiens, UniProt P30874).
T1 construct: expressed in transfected cells; host or cells: CHO-K1 (membrane homogenates)
T1 sequence (P30874 whole entry): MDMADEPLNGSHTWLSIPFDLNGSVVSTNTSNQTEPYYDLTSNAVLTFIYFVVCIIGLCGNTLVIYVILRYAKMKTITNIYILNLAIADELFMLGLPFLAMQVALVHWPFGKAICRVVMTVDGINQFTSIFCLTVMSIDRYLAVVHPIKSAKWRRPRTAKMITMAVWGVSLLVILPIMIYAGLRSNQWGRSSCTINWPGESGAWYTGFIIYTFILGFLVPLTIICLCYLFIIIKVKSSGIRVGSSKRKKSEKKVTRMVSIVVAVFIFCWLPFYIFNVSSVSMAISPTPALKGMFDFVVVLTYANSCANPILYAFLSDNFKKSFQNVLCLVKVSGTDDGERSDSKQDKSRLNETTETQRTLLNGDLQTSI
Nature of the series: biochemical. The conditions noted are these: 25° C., 2 hours, Cheng-Prusoff; read-out: Binding Ki (nM) SSTR2. The procedure:
(§1) Cell membranes were then filtered and washed, and protein-bound radioactivity was measured with a suitable instrument. The Ki values of corresponding targets were calculated using a Cheng-Prusoff formula.

In a further series the target is T2, human SSTR1 (Homo sapiens, UniProt P30872).
T2 construct: expressed in transfected cells; host or cells: CHO-K1 (membrane homogenates)
T2 sequence (P30872 whole entry): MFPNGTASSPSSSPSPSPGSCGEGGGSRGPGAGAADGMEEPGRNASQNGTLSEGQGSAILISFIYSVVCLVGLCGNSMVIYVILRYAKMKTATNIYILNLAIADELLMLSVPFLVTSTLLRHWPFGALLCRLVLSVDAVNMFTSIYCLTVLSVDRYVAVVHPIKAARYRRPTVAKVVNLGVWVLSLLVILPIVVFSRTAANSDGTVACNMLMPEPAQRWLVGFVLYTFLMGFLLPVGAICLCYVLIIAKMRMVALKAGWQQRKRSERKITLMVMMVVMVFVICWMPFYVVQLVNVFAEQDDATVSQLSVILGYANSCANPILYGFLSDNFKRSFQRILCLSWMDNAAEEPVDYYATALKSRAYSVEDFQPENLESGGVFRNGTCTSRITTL
Nature of the series: biochemical. The conditions noted are these: 25° C., 2 hours, Cheng-Prusoff; read-out: Binding Ki (nM) SSTR1. As for the experimental part:
as §1

The next series addresses T3, human SSTR5 (Homo sapiens, UniProt P35346).
T3 construct: expressed in transfected cells; host or cells: CHO-K1 (membrane homogenates)
Put plainly: biochemical. The note with it: 25° C., 2 hours, Cheng-Prusoff; read-out: Binding Ki (nM) SSTR5. As for the experimental part: as §1

For a further series, the target named is T4, human SSTR3 (Homo sapiens, UniProt P32745).
T4 construct: expressed in transfected cells; host or cells: CHO-K1 (membrane homogenates)
T4 sequence (P32745 whole entry): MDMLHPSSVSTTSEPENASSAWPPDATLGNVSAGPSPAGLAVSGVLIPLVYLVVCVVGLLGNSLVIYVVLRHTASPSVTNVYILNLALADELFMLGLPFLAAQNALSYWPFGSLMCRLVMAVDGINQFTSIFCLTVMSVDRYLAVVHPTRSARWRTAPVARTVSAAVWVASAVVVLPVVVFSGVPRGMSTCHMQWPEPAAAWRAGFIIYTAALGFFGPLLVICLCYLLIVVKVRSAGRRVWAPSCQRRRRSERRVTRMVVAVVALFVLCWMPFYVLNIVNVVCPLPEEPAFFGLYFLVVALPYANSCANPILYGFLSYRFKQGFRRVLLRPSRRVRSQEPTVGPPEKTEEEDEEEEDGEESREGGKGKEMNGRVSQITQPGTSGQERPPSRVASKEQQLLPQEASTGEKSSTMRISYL
Nature of the series: biochemical. The note with it: 25° C., 2 hours, Cheng-Prusoff; read-out: Binding Ki (nM) SSTR3. The procedure: as §1

Series [2] has as its system rat CFA pain model. Put plainly: multi-dose oral pharmacodynamic study in rat CFA pain model (Von Frey PWT). The class given is in vivo. As for the experimental part:
The efficacy of Compound 1a and Compound 14 in the rat CFA pain model was evaluated using a mechanical allodynia method.
SD rats, 72 males, divided into 9 groups, were purchased from Beijing Vital River Laboratory Animal Technology Co., Ltd.
The experimental animals were adaptively reared for 3 to 7 days, and 8 of them were selected as a normal control group, and the other animals were injected with 50 µL of CFA in the center of the left hind paw for modeling. 24 hours after injection, the animals were tested for paw withdrawal threshold (PWT) basal values, and were divided into groups according to the basal values, which were solvent control group, indomethacin group, Compound 1a, 10 mpk group, Compound 1a, 30 mpk group, Compound 1a, 100 mpk group, Compound 14, 3 mpk group, Compound 14, 10 mpk group, and Compound 14, 30 mpk group, with 8 animals in each group. Subsequently, the animals were weighed and administered orally according to Table 6. All the animals were tested for paw withdrawal thresholds (PWT) using Von Frey 1, 2, and 4 hours after administration to further evaluate the efficacy of the compounds of the present invention.

The next series has as its target T5, human SSTR4 (Homo sapiens, UniProt P31391).
T5 construct: expressed in transfected cells
Put plainly: radioligand binding assay, [125I]Somatostatin-14, CHO-K1 membranes. As for the experimental part: as §1

For series [3], the system named is rat CFA pain model. Put plainly: single-dose pharmacodynamic study in rat CFA pain model (Von Frey PWT). The class given is in vivo. The conditions noted are these: for Mechanical allodynia test (PWT (g), mean) Baseline: 10 mg/kg I.P. group, baseline 24 h after CFA, before administration; for Mechanical allodynia test (PWT (g), mean) 1 hour: 1 hour after single administration; for Mechanical allodynia test (PWT (g), mean) 3 hours: 3 hours after single administration; for inhibition of CFA-induced mechanical allodynia (in words): single administration, FIG. 1. The procedure: Each male SD rat (7-8 weeks old) was injected with 50 microliters of CFA in the center of the left hind paw. A PWT basal value test was conducted 24 hours after modeling, and the drugs were administered after randomization.
There were 8 animals in each group, and the animals were weighed and administered according to Table 4.
For all groups of animals, paw withdrawal thresholds (PWTs) of the animals were tested using Von Frey after 1 h and 3 h of single administration.

Experimental findings from US20230192683A1, “FUSED RING COMPOUNDS, PREPARATION METHOD THEREFOR, PHARMACEUTICAL COMPOSITIONS AND USE THEREOF” (priority 2020, published 2023) are described below.

Marks after values point to notes of the source that are not given here. A value given as a limit tells only on which side of the number the result lay.

T5 sequence (P31391 whole entry): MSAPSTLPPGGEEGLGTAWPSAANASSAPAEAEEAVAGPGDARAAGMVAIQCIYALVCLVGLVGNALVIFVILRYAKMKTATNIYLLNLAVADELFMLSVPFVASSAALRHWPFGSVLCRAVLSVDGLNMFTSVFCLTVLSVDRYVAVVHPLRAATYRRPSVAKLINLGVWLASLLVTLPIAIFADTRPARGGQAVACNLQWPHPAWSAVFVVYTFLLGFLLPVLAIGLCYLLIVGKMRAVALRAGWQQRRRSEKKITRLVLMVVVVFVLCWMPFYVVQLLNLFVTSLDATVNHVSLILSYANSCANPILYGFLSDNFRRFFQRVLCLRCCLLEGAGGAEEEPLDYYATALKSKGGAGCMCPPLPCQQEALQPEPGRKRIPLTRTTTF
T3 sequence (P35346 whole entry): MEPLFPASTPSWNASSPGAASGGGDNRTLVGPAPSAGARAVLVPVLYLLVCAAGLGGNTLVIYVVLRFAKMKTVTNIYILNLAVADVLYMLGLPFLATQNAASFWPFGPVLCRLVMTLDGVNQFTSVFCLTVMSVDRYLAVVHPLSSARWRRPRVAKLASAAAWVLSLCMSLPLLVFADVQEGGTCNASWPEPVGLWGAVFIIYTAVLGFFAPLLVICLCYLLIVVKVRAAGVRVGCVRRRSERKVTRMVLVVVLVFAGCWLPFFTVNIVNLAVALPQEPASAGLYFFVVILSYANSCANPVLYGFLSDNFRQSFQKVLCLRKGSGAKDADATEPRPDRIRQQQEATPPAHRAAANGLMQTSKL

On to `CSc1cccn2c(C(C)(C)NC(=O)[C@H]3[C@@H]4CNC[C@@H]43)ncc12` [Compound 1a, (1R,5S,6R)-N-(2-(8-(Methylthio)Imidazo[1,5-a]Pyridin-3-yl)Prop-2-yl)-3-Azabicyclo[3.1.0]Hexane-6-Carboxamide], for which the half-life in series [1] is 2.58 ± 1.07 h. For the same molecule, the Vd in series [1] (read-out: Apparent volume of distribution) turned out to be 5.12 ± 1.14 L/kg. The clearance in series [1] (read-out: Clearance rate) is 53 ± 1.76 mL/min/kg. The Ki is above 5310 nM on human SSTR2; above 8280 nM at human SSTR1; above 5650 nM at human SSTR5; above 3420 nM on human SSTR3; 0.00552 µM at human SSTR4. For the same molecule, the “Paw withdrawal threshold (PWT(g)) (average) 0 hours” value in the series with rat CFA pain model [2] (10 mg/kg oral group) amounted to 3.016 g; in the series on rat CFA pain model [2] (30 mg/kg oral group), 3.118 g; in the series on rat CFA pain model [2] (100 mg/kg oral group) it was 3.118 g. Besides, the results for the “Paw withdrawal threshold (PWT(g)) (average) 1 hour” value in the series with rat CFA pain model [2] (10 mg/kg oral), with rat CFA pain model [2] (30 mg/kg oral) and in the series with rat CFA pain model [2] (100 mg/kg oral) were 4.020 g, 4.173 g and 3.855 g, respectively. Also, the “Paw withdrawal threshold (PWT(g)) (average) 2 hours” value in the series with rat CFA pain model [2] (10 mg/kg oral) is given as 6.722 * g; with rat CFA pain model [2] (30 mg/kg oral), 7.637 ** g; in the series with rat CFA pain model [2] (100 mg/kg oral), 9.549 **** g. In addition, the results for the “Paw withdrawal threshold (PWT(g)) (average) 4 hours” value with rat CFA pain model [2] (10 mg/kg oral), in the series on rat CFA pain model [2] (30 mg/kg oral) and in the series on rat CFA pain model [2] (100 mg/kg oral) were 8.438 **** g, 10.958 **** ### g and 9.687 **** # g, respectively. Besides, the “efficacy compared with positive control compound indomethacin (in words)” value in the series on rat CFA pain model [2] (30 mpk and 100 mpk groups, oral, 4 hours after administration) was “significantly better than that of the positive control compound indomethacin”. Besides, in the series on rat CFA pain model [2] (oral 10, 30, 100 mg/kg, 2 and 4 hours after administration), the “inhibition of CFA-induced mechanical hyperalgesia (in words)” value is “dose-dependently inhibit”. Also, in the series on rat CFA pain model [2] (oral, inhibition of CFA-induced mechanical hyperalgesia), the onset dose came out at 10 mg/kg. For the same molecule, on human SSTR4 (binding selectivity to SSTRs 1-5), the “SSTR4 selectivity (in words)” value is reported as “the best”. Also, the “SSTR4 /SSTR 1” value on human SSTR4 (ratio of binding Ki values, selectivity) is reported as above 1500. In the series with rat CFA pain model [3], the “Mechanical allodynia test (PWT (g), mean) Baseline” value was 3.554 g. For the same molecule, the “Mechanical allodynia test (PWT (g), mean) 1 hour” value in the series with rat CFA pain model [3] (10 mg/kg I.P.) is given as 6.484 * # g. For the same molecule, the “efficacy compared with Control Compound A (in words)” value in the series on rat CFA pain model [3] (10 mg/kg I.P., 1 hour and 3 hours after administration) is “significantly better than that of Control Compound A”. In addition, in the series with rat CFA pain model [3] (10 mg/kg I.P.), the “Mechanical allodynia test (PWT (g), mean) 3 hours” value is 8.371 **** g. For the same molecule, the “inhibition of CFA-induced mechanical allodynia (in words)” value in the series on rat CFA pain model [3] (10 mg/kg I.P.) is given as “inhibited CFA-induced mechanical allodynia”.

With `Cc1cccc2c(C(C)(C)NC(=O)[C@H]3[C@@H]4CNC[C@@H]43)nn(C)c12` [Control Compound A, reference compound], the inhibitory constant (Ki) was above 5310 nM on human SSTR2, 1800 nM at human SSTR1, above 5650 nM at human SSTR5 and above 3420 nM at human SSTR3. Further, in the series on rat CFA pain model [3], the “Mechanical allodynia test (PWT (g), mean) Baseline” value stood at 3.765 g. Further, the “Mechanical allodynia test (PWT (g), mean) 1 hour” value in the series on rat CFA pain model [3] (10 mg/kg I.P.) is on record as 3.813 g. Besides, the “Mechanical allodynia test (PWT (g), mean) 3 hours” value with rat CFA pain model [3] (10 mg/kg I.P.) was 6.237 * g. The “inhibition of CFA-induced mechanical allodynia (in words)” value in the series on rat CFA pain model [3] (10 mg/kg I.P.) is “inhibited CFA-induced mechanical allodynia”.
